From the supplement of paper PMC10307832

Columns and labels:
Assay in all cases: relative viability (nuclei count vs DMSO), 5 days (fraction); higher = more cells survive
[1] = compound: CCn1c(-c2nonc2N)nc2c(C#CC(C)(C)O)ncc(OC[C@H]3CCCNC3)c21 + Nc1ncn([C@H]2C[C@H](O)[C@@H](CO)O2)c(=O)n1 [Decitabine] (partner 2 µM)
Method in brief: (§1)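 Relative viability was taken as the ratio of nuclei in treated wells to nuclei in vehicle wells. Lung cancer cell lines in 1536-well plates received compounds by pin tool one day after seeding, either one drug alone or a fixed anchor-drug dose plus five library-drug doses (not always all listed) in √10 steps. Nuclei were counted on 4× images after 5 days of treatment, and values are medians of duplicate plates.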

[2] = compound: CCn1c(-c2nonc2N)nc2c(C#CC(C)(C)O)ncc(OC[C@H]3CCCNC3)c21 + CC(=O)c1c(C)c2cnc(Nc3ccc(N4CCNCC4)cn3)nc2n(C2CCCC2)c1=O [Palbociclib] (partner 0.5 µM)
Method in brief: as §1

[3] = compound: CCOC1=CC=CC=C1N=NC2=C(NN(C2=O)C3=NC(=CS3)C4=CC=CC=C4)C [BAM7] + C[C@@H](Oc1cc(-c2cnn(C3CCNCC3)c2)cnc1N)c1c(Cl)ccc(F)c1Cl [Crizotinib] (partner 1 µM)
Method in brief: as §1

[4] = compound: CCOC1=CC=CC=C1N=NC2=C(NN(C2=O)C3=NC(=CS3)C4=CC=CC=C4)C [BAM7] + C[C@]1(O)C[C@@H](c2nc(-c3ccc4ccc(-c5ccccc5)nc4c3)c3c(N)nccn32)C1 [Linsitinib] (partner 1 µM)
Method in brief: as §1

Cell Line | relative viability ([1]; first compound 0.01 µM) | relative viability ([1]; first compound 0.03162 µM) | relative viability ([1]; first compound 0.1 µM) | relative viability ([1]; first compound 0.3162 µM) | relative viability ([1]; first compound 1 µM) | relative viability ([2]; first compound 0.01 µM) | relative viability ([2]; first compound 0.03162 µM) | relative viability ([2]; first compound 0.1 µM) | relative viability ([2]; first compound 0.3162 µM) | relative viability ([2]; first compound 1 µM) | relative viability ([3]; first compound 0.5 µM) | relative viability ([3]; first compound 5 µM) | relative viability ([3]; first compound 15.81 µM) | relative viability ([3]; first compound 50 µM) | relative viability ([4]; first compound 0.5 µM) | relative viability ([4]; first compound 5 µM) | relative viability ([4]; first compound 15.81 µM) | relative viability ([4]; first compound 50 µM)
LCLC-97TM1 | 0.2 | 0.226 | 0.268 | 0.235 | 0.268 | 0.19 | 0.245 | 0.234 | 0.205 | 0.2 | 0.305 | 0.386 | 0.245 | 0.332 | 0.174 | 0.184 | 0.176 | 0.179
LCLC-103H | 0.726 | 0.797 | 0.737 | 0.716 | 0.781 | 0.511 | 0.475 | 0.503 | 0.48 | 0.352 | 1.08 | 1.03 | 1.01 | 0.804 | 1.06 | 1.22 | 1.15 | 0.933
LK-2 | 0.267 | 0.302 | 0.294 | 0.312 | 0.307 | 0.641 | 0.714 | 0.556 | 0.625 | 0.887 | 0.246 | 0.23 | 0.244 | 0.27 | 0.675 | 0.708 | 0.629 | 0.59
LOU-NH91 | 0.821 | 0.788 | 0.891 | 0.73 | 0.779 | 0.511 | 0.541 | 0.527 | 0.535 | 0.479 | 0.722 | 0.801 | 0.719 | 0.705 | 0.912 | 0.936 | 0.893 | 0.996
LU99A | 0.884 | 0.971 | 0.866 | 0.826 | 0.883 | 0.37 | 0.45 | 0.388 | 0.406 | 0.423 | 0.602 | 0.542 | 0.567 | 0.555 | 0.565 | 0.542 | 0.491 | 0.6
LXF-289 | 0.42 | 0.369 | 0.352 | 0.35 | 0.364 | 0.63 | 0.568 | 0.608 | 0.581 | 0.605 | 0.924 | 0.876 | 0.773 | 0.787 | 1.02 | 1.04 | 0.955 | 0.962
NCI-H23 | 0.287 | 0.332 | 0.307 | 0.27 | 0.302 | 0.44 | 0.481 | 0.52 | 0.575 | 0.55 | 0.587 | 0.535 | 0.424 | 0.515 | 0.507 | 0.663 | 0.698 | 0.679
NCI-H322M | 0.785 | 0.721 | 0.617 | 0.593 | 0.575 | 0.456 | 0.48 | 0.487 | 0.463 | 0.475 | 0.859 | 0.798 | 0.811 | 0.641 | 0.892 | 0.805 | 0.949 | 0.845
NCI-H358 | 0.234 | 0.191 | 0.221 | 0.207 | 0.201 | 0.139 | 0.147 | 0.122 | 0.151 | 0.131 | 0.76 | 0.589 | 0.522 | 0.52 | 0.782 | 0.878 | 0.704 | 0.787
NCI-H441 | 0.226 | 0.226 | 0.271 | 0.197 | 0.29 | 0.225 | 0.206 | 0.227 | 0.193 | 0.207 | 0.776 | 0.656 | 0.706 | 0.717 | 0.547 | 0.597 | 0.648 | 0.399
NCI-H460 | 0.529 | 0.398 | 0.493 | 0.465 | 0.513 | 0.146 | 0.0929 | 0.18 | 0.127 | 0.139 | 1.16 | 1.13 | 0.743 | 0.96 | 1.02 | 0.765 | 0.653 | 0.754
NCI-H520 | 0.483 | 0.47 | 0.387 | 0.359 | 0.332 | 0.185 | 0.2 | 0.164 | 0.153 | 0.165 | 0.705 | 0.747 | 0.856 | 0.684 | 0.916 | 1.03 | 1.08 | 0.87
NCI-H647 | 0.384 | 0.379 | 0.407 | 0.299 | 0.371 | 0.349 | 0.401 | 0.416 | 0.309 | 0.337 | 0.758 | 1.25 | 1.14 | 1.08 | 1.27 | 1.32 | 1.13 | 1.12
NCI-H650 | 0.323 | 0.348 | 0.32 | 0.304 | 0.29 | 0.318 | 0.33 | 0.304 | 0.368 | 0.325 | 0.649 | 0.764 | 0.656 | 0.69 | 0.867 | 0.95 | 0.825 | 1.19
NCI-H661 | 0.504 | 0.591 | 0.513 | 0.561 | 0.543 | 0.446 | 0.399 | 0.39 | 0.389 | 0.372 | 1.27 | 1.08 | 0.971 | 0.931 | 0.672 | 0.605 | 0.433 | 0.601
NCI-H727 | 1.03 | 0.976 | 0.943 | 0.825 | 0.714 | 0.667 | 0.695 | 0.52 | 0.647 | 0.734 | 0.843 | 0.799 | 0.714 | 0.675 | 0.273 | 0.416 | 0.314 | 0.245
NCI-H838 | 0.452 | 0.416 | 0.482 | 0.44 | 0.497 | 0.19 | 0.221 | 0.199 | 0.172 | 0.227 | 0.867 | 0.904 | 0.803 | 0.783 | 1.12 | 1.06 | 0.982 | 0.994
